From US11518763B2 (SCOHIA PHARMA, INC., priority 2018, dated 2022)

target: T1, binding between NRF2 and KEAP1 (biotinylated human KEAP1 protein (Kelch domain), TAMRA-labeled NRF2 peptide) (Homo sapiens, UniProt Q14145); test: Measurement of activity of inhibiting NRF2 binding (NRF2-KEAP1 TR-FRET); settings: inhibition rate relative to control at 100 nM test compound; TR-FRET; 60 min at room temperature
T1 construct: biotinylated human KEAP1 protein (Kelch domain); biotin (biotinylated)
Description: Test Example 1: Measurement of Activity of Inhibiting NRF2 Binding
The inhibitory activity of test compounds against the binding between NRF2 and KEAP1 was measured by Time Resolved Fluorescence Resonance Energy Transfer (TR-FRET) method. Into a 384 well plate, 2 μL of a compound, 2 μL of 2 nM solution of biotinylated human KEAP1 protein (Kelch domain), 2 μL of 14 nM solution of TAMRA-labeled NRF2 peptide (TAMRA-Abu(4)-VWYTDIRMRDWM-OH), and 2 μL of 2 nM solution of Tb-labeled streptavidin, all solutions diluted with assay buffer (25 mM HEPES, pH7.5, 150 mM NaCl, 0.01% Tween-20), were added. For some wells, the KEAP1 protein was not added to define control wells. The plate was incubated at room temperature for 60 minutes, and time-resolved fluorescence was measured with a plate reader Envision (manufactured by PerkinElmer). The inhibitory activity for each compound at a compound concentration of 100 nM were calculated as a relative activity value by setting the fluorescence intensity of control wells to which the KEAP1 protein was not added as 100% inhibition, and the fluorescence intensity of wells to which no compound was added as 0%.
The measurement results according to the method described above (inhibition rate of signal value relative to control at 100 nM of test compound) are shown in Table 3.

T1 sequence (Q14145 321-609 limits assumed): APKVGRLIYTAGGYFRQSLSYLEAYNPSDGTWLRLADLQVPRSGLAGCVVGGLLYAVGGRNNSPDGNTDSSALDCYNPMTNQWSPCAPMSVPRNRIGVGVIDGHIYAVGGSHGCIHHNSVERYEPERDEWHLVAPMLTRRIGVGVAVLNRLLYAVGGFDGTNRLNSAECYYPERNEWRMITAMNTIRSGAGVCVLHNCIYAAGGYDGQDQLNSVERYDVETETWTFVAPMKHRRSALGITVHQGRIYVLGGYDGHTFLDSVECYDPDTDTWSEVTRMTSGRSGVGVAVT

NRF2 binding inhibitory activity (at 100 nM) | Structure (SMILES)
100% | Cc1c2ccc3c1nnn3CCCCCc1ccc(cc1)C(=O)N1CCc3ccc(cc3C1)C2CC(=O)O (stereo not shown) [Example 12, [32-Methyl-20-oxo-8,9,10,21-tetraazahexacyclo[19.5.3.2^16,19.0^3,7.0^6,10.0^24,28]dotriaconta-1(26),3(32),4,6,8,16,18,24,27,30-decaen-2-yl]acetic acid]

same assay, conditions: inhibition rate relative to control at 100 nM test compound; TR-FRET; 60 min at room temperature; 0.1 µM

NRF2 binding inhibitory activity (at 100 nM) | Structure (SMILES)
94% | Cc1c2ccc3c1nnn3CCCCOc1cc(Cl)c(c(Cl)c1)C(=O)N1CCc3ccc(cc3C1)C2C(C)(C)C(=O)O (stereo not shown) [Example 66, 2-[18,30-dichloro-32-methyl-20-oxo-15-oxa-8,9,10,21-tetrazahexacyclo[19.5.3.2^16,19.1^3,7.0^6,10.0^24,28]dotriaconta-1(27),3(32),4,6,8,16(31),17,19(30),24(28),25-decaen-2-yl]-2-methylpropanoic acid]
99% | Cc1c2ccc3c1nnn3CCCOCc1ccc(cc1)C(=O)N1CCc3ccc(cc3C1)C2C(C)(C)C(=O)O (stereo not shown) [Example 56, 2-methyl-2-[32-methyl-20-oxo-14-oxa-8,9,10,21-tetrazahexacyclo[19.5.3.2^16,19.1^3,7.0^6,10.0^24,28]dotriaconta-1(27),3(32),4,6,8,16,18,24(28),25,30-decaen-2-yl]propanoic acid]

Structure (SMILES) | NRF2 binding inhibitory activity (at 100 nM)
Cc1c2ccc3c1nnn3CCCOCc1ccc(cc1)C(=O)N1CCc3ccc(cc3C1)C2CC(=O)O (stereo not shown) [Example 26, [32-Methyl-20-oxo-14-oxa-8,9,10,21-tetraazahexacyclo[19.5.3.2^16,19.1^3,7.0^6,10.0^24,28]dotriaconta-1(26),3(32),4,6,8,16,18,24,27,30-decaen-2-yl]acetic acid] | 99%

same assay, conditions: inhibition rate relative to control at 100 nM test compound; TR-FRET; 60 min at room temperature; read-out: NRF2 binding inhibitory activity (at 100 nM)

inhibition at 0.1 µM | Structure (SMILES)
97% | Cc1c2ccc3c1nnn3CCCCCc1ccc(cc1)C(=O)N1CCc3ccc(cc3C1)C2CC(=O)Nc1cccnc1 (stereo not shown) [Example 39]
100% | Cc1c2ccc3c1nnn3CCCCCc1ccc(cc1)C(=O)N1CCc3ccc(cc3C1)C2C(C)C(=O)O (stereo not shown) [Example 6, 2-[32-Methyl-20-oxo-8,9,10,21-tetraazahexacyclo[19.5.3.2^16,19.1^3,7.0^6,10.0^24,28]dotriaconta-1(26),3(32),4,6,8,16,18,24,27,30-decaen-2-yl]propanoic acid]
100% | Cc1c2ccc3c1nnn3CCCCCc1ccc(cc1)C(=O)N1CCc3ccc(cc3C1)C2CC(=O)O (racemic) [Example 1, [32-Methyl-20-oxo-8,9,10,21-tetraazahexacyclo[19.5.3.2^16,19.1^3,7.0^6,10.0^24,28]dotriaconta-1(26),3(32),4,6,8,16,18,24,27,30-decaen-2-yl]acetic acid]
100% | Cc1c2ccc3c1nnn3CCCCCc1cc(Cl)c(c(Cl)c1)C(=O)N1CCc3ccc(cc3C1)C2CC(=O)O (racemic) [Example 64, [2-[18,30-dichloro-32-methyl-20-oxo-8,9,10,21-tetrazahexacyclo[19.5.3.2^16,19.1^3,7.0^6,10.0^24,28]dotriaconta-1(27),3(32),4,6,8,16(31),17,19(30),24(28),25-decaen-2-yl]acetyl]oxysodium]
99% | Cc1cc2cc(C)c1C(=O)N1CCc3ccc(cc3C1)C(CC(=O)O)c1ccc3c(nnn3CCCOC2)c1C (stereo not shown) [Example 67, [18,30,32-trimethyl-20-oxo-14-oxa-8,9,10,21-tetrazahexacyclo[19.5.3.2^16,19.1^3,7.0^6,10.0^24,28]dotriaconta-1(27),3(32),4,6,8,16,18,24(28),25,30-decaen-2-yl]acetic acid]
6% | CCOC(=O)CC1c2ccc3c(c2)CN(CC3)C(=O)c2ccc(cc2)COCCCn2nnc3c(C)c1ccc32 (racemic) [Example 27, Ethyl [32-methyl-20-oxo-14-oxa-8,9,10,21-tetraazahexacyclo[19.5.3.2^16,19.1^3,7.0^6,10.0^24,28]dotriaconta-1(26),3(32),4,6,8,16,18,24,27,30-decaen-2-yl]acetate]
100% | O=C(O)CC1c2ccc3c(c2)CN(CC3)C(=O)c2ccc(cc2)CCCCCn2nnc3cc1ccc32 (racemic) [Example 2, [20-oxo-8,9,10,21-tetraazahexacyclo[19.5.3.2^16,19.1^3,7.0^6,10.0^24,28]dotriaconta-1(26),3(32),4,6,8,16,18,24,27,30-decaen-2-yl]acetic acid]
99% | Cc1oc(=O)oc1COC(=O)CC1c2ccc3c(c2)CN(CC3)C(=O)c2ccc(cc2)COCCCn2nnc3c(C)c1ccc32 (stereo not shown) [Example 34, (5-Methyl-2-oxo-2H-1,3-dioxol-4-yl)methyl [32-methyl-20-oxo-14-oxa-8,9,10,21-tetraazahexacyclo[19.5.3.2^16,19.1^3,7.0^6,10.0^24,28]dotriaconta-1(26),3(32),4,6,8,16,18,24,27,30-decaen-2-yl]acetate]
100% | Cc1c2ccc3c1nnn3CCCOCc1ccc(cc1)C(=O)N1CCc3ccc(cc3C1)C2C(C)(C)C(=O)O (racemic) [Example 28, 2-Methyl-2-[32-methyl-20-oxo-14-oxa-8,9,10,21-tetraazahexacyclo[19.5.3.2^16,19.1^3,7.0^6,10.0^24,28]dotriaconta-(26),3(32),4,6,8,16,18,24,27,30-decaen-2-yl]propanoic acid]
100% | Cc1cc2ccc1C(=O)N1CCc3ccc(cc3C1)C(CC(=O)O)c1ccc3c(nnn3CCCOC2)c1C (racemic) [Example 17, [18,32-Dimethyl-20-oxo-14-oxa-8,9,10,21-tetraazahexacyclo[19.5.3.2^16,19.1^3,7.0^6,10.0^24,28]dotriaconta-1(26),3(32),4,6,8,16,18,24,27,30-decaen-2-yl]acetic acid]
99% | Cc1c2ccc3c1nnn3CCCCc1ccc(cc1)C(=O)N1CCc3ccc(cc3C1)C2CC(=O)O (racemic) [Example 13, [31-Methyl-19-oxo-8,9,10,20-tetraazahexacyclo[18.5.3.2^15,18.1^3,7.0^6,10.0^23,27]hentriaconta-1(25),3(31),4,6,8,15,17,23,26,29-decaen-2-yl]acetic acid]
82% | Cc1c2ccc3c1nnn3CCCOCc1ccc(cc1)C(=O)N1CCc3ccc(cc3C1)C2CC(=O)OC(C)OC(=O)OC1CCCCC1 (stereo not shown) [Example 40, 1-{[(Cyclohexyloxy)carbonyl]oxy}ethyl[32-methyl-20-oxo-14-oxa-8,9,10,21-tetraazahexacyclo[19.5.3.2^16,19.1^3,7.0^6,10.0^24,28]dotriaconta-1(26),3(32),4,6,8,16,18,24,27,30-decaen-2-yl]acetate]
100% | CCc1cc2ccc1C(=O)N1CCc3ccc(cc3C1)C(CC(=O)O)c1ccc3c(nnn3CCCOC2)c1C (racemic) [Example 18, [18-Ethyl-32-methyl-20-oxo-14-oxa-8,9,10,21-tetraazahexacyclo[19.5.3.2^16,19.1^3,7.0^6,10.0^24,28]dotriaconta-1(26),3(32),4,6,8,16,18,24,27,30-decaen-2-yl]acetic acid]
100% | Cc1c2ccc3c1nnn3CCCOCc1ccc(c(OC(F)(F)F)c1)C(=O)N1CCc3ccc(cc3C1)C2CC(=O)O (racemic) [Example 20, [32-Methyl-20-oxo-18-(trifluoromethoxy)-14-oxa-8,9,10,21-tetraazahexacyclo[19.5.3.2^16,19.1^3,7.0^6,10.0^24,28]dotriaconta-1(26),3(32),4,6,8,16,18,24,27,30-decaen-2-yl] acetic acid]
100% | Cc1c2ccc3c1nnn3CCCOCc1ccc(c(C3CC3)c1)C(=O)N1CCc3ccc(cc3C1)C2CC(=O)O (racemic) [Example 19, [18-Cyclopropyl-32-methyl-20-oxo-14-oxa-8,9,10,21-tetraazahexacyclo[19.5.3.2^16,19.1^3,8.0^6,10.0^24,28]dotriaconta-1(26),3(32),4,6,8,16,18,24,27,30-decaen-2-yl]acetic acid]
100% | COc1cc2ccc1C(=O)N1CCc3ccc(cc3C1)C(CC(=O)O)c1ccc3c(nnn3CCCOC2)c1C (racemic) [Example 22, [18-Methoxy-32-methyl-20-oxo-14-oxa-8,9,10,21-tetraazahexacyclo[19.5.3.2^16,19.1^3,7.0^6,10.0^24,28]dotriaconta-1(26),3(32),4,6,8,16,18,24,27,30-decaen-2-yl]acetic acid]
79% | Cc1c2ccc3c1nnn3CC/C=C\CCc1ccc(cc1)C(=O)N1CCc3ccc(cc3C1)C2CC(=O)O (racemic) [Example 14, [(13Z)-33-Methyl-21-oxo-8,9,10,22-tetraazahexacyclo[20.5.3.2^17,20.1^3,7.0^6,10.0^25,29]tritriaconta-1(27),3(33),4,6,8,13,17,19,25,28,31-undecaen-2-yl]acetic acid]

same assay, conditions: read-out: NRF2 binding inhibitory activity (at 100 nM)

Structure (SMILES) | inhibition at 0.1 µM
Cc1c2ccc3c1nnn3CCCOCc1ccc(cc1)C(=O)N1CCc3ccc(cc3C1)C2CC(=O)O (stereo not shown) [Example 41, Sodium [32-methyl-20-oxo-14-oxa-8,9,10,21-tetraazahexacyclo[19.5.3.2^16,19.1^3.7.0^6,10.0^24,28]dotriaconta-1(26),3(32),4,6,8,16,18,24,27,30-decaen-2-yl]acetate] | 100%
